Source: patent US7745619B2, “Vinca derivatives” (priority 2003, dated 2010)
Like-named read-outs stand apart in the source and are kept apart here.

What was measured:
HeLa S-3 cells = test: HeLa GI50 determination (SRB growth inhibition); format: cell-based, human; conditions: Homo sapiens, HeLa S3, 48 h
Description: Growth inhibition (GI50) values were measured on the human cervical carcinoma cell line, HeLa S-3, which were selected for growth on plastic. The HeLa cell assay was based on the description of Skehan et al., J. Natl. Cancer Inst., 82:1107-12 (1990), which is hereby incorporated by reference in its entirety. HeLa cells were plated at 2×10^4 cells/well in 96 well plates. One day later, a control plate was fixed by the addition of TCA to 5%. After five rinses with tap water, the plate was air-dried and stored at 4° C. Test compounds were added to the remaining plates at 10-fold dilutions. Two days later, all plates were fixed as described above. Cells were then stained by the addition of 100 μL per well of 0.4% sulforhodamine B (SRB) in 1% acetic acid for 30 min at 4° C. Wells were then quickly rinsed 5× with 1% acetic acid and allowed to air dry. The SRB was then solubilized by the addition of 100 μL per well of unbuffered 10 mM Tris base. Dye was quantified by measuring absorbance at 490 nm on a Molecular Devices microplate reader. Growth inhibition was calculated according to the following equation: GI=100×(T−T0)/(C−T0), where the optical density (OD) of the test well after 2 days of treatment was T, the OD of the wells in the control plate on day 0 was T0 and C was the OD of untreated wells. Plots of percent growth inhibition versus inhibitor concentration were used to determine the GI50.

MCF-7 cells = test: MCF-7 GI50 determination (crystal violet growth inhibition); format: cell-based, human; conditions: Homo sapiens, MCF7, 96 h
Description: Growth inhibition (GI50) values were measured on the human breast carcinoma line, MCF-7. MCF-7 cells were plated at 2×10^4 cells/well in 96 well plates and grown for 24 hours in drug free media. On day 2, test compounds were added to the plates at 10-fold dilutions. Four days later, cells were fixed by the addition of glutaraldehyde to 0.75%. After 30 min, the fixed cells were extensively rinsed with distilled water and dried at room temperature for one hour. The cells were then stained with a 0.2% crystal violet solution for one hour at room temperature. Unbound stain was removed by ten rinses with tap water and plates were allowed to air dry for 30 min. The crystal violet was then solubilized by the addition of 10% acetic acid for 15 min and quantified by measuring absorbance at 570 nm on a Molecular Devices microplate reader. Growth inhibition was calculated according to the following equation: GI=[…], where the optical density (OD) of the test well after 4 days of treatment was T, the OD of the wells in the control plate on day 0 was T0. Plots of percent growth inhibition versus inhibitor concentration were used to determine the GI50.

[1] = read-out: MCF-7 Cells GI50 (nM)
[2] = HeLa S-3 cells, 2 days of treatment, sulforhodamine B, read-out: HeLa Cells GI50
[3] = MCF-7 cells, 4 days of treatment, crystal violet, read-out: MCF-7 Cells GI50

Row | Compound | GI50 (HeLa S-3 cells; read-out: HeLa Cells GI50 (nM)) [nM] | GI50 (MCF-7 cells; [1]) [nM] | GI50 (HeLa S-3 cells; [2]) [nM] | GI50 (MCF-7 cells; [3]) [nM]
1 | CC[C@]1(O)C[C@H]2CN(CCc3c([nH]c4cc(C)c(C)cc34)[C@@](C(=O)OC)(c3cc4c(cc3OC)N(C=O)[C@H]3[C@@](O)(C(=O)OC)[C@H](OC(C)=O)[C@]5(CC)C=CCN6CC[C@]43[C@@H]65)C2)C1 [Example 93, 12′,13′-dimethyl vincristine] | 20 | 30 |  | 
2 | CC[C@]1(O)C[C@H]2CN(CCc3c([nH]c4ccc(SSC(C)(C)C)cc34)[C@@](C(=O)OC)(c3cc4c(cc3OC)N(C)[C@H]3[C@@](O)(C(=O)OC)[C@H](OC(C)=O)[C@]5(CC)C=CCN6CC[C@]43[C@@H]65)C2)C1 [Example 59, 12′-(tert-butyldisulfanyl) vinblastine] | 300 | 300 |  | 
3 | CC[C@]1(O)C[C@H]2CN(CCc3c([nH]c4ccc(C#CCN(C)C)cc34)[C@@](C(=O)OC)(c3cc4c(cc3OC)N(C)[C@H]3[C@@](O)(C(=O)OC)[C@H](OC(C)=O)[C@]5(CC)C=CCN6CC[C@]43[C@@H]65)C2)C1 [Example 24, 12′-(N,N-dimethylaminopropynyl)vinblastine] | 300 | 400 |  | 
4 | CC[C@]1(O)C[C@H]2CN(CCc3c([nH]c4ccc(N(C)C)cc34)[C@@](C(=O)OC)(c3cc4c(cc3OC)N(C)[C@H]3[C@@](O)(C(=O)OC)[C@H](OC(C)=O)[C@]5(CC)C=CCN6CC[C@]43[C@@H]65)C2)C1 [Example 81, 12′-(N,N-dimethylamino)vinblastine] |  |  | 30 | 50
5 | CCCSc1ccc2[nH]c3c(c2c1)CCN1C[C@H](C[C@@](O)(CC)C1)C[C@]3(C(=O)OC)c1cc2c(cc1OC)N(C)[C@H]1[C@@](O)(C(=O)OC)[C@H](OC(C)=O)[C@]3(CC)C=CCN4CC[C@]21[C@@H]43 [Example 39, 12′-(propylsulfanyl) vinblastine] |  |  | 25 | 25
6 | CCSc1ccc2[nH]c3c(c2c1)CCN1C[C@H](C[C@@](O)(CC)C1)C[C@]3(C(=O)OC)c1cc2c(cc1OC)N(C)[C@H]1[C@@](O)(C(=O)OC)[C@H](OC(C)=O)[C@]3(CC)C=CCN4CC[C@]21[C@@H]43 [Example 41, 12′-(ethylsulfanyl) vinblastine] |  |  | 2 | 3
7 | CC[C@]1(O)C[C@H]2CN(CCc3c([nH]c4ccc(Sc5ccccc5Cl)cc34)[C@@](C(=O)OC)(c3cc4c(cc3OC)N(C=O)[C@H]3[C@@](O)(C(=O)OC)[C@H](OC(C)=O)[C@]5(CC)C=CCN6CC[C@]43[C@@H]65)C2)C1 [Example 56, 12′-(2-chlorophenylsulfanyl)vincristine] | 30 | 30 |  | 
8 | CC[C@]1(O)C[C@H]2CN(CCc3c([nH]c4ccc(CNC(C)C)cc34)[C@@](C(=O)OC)(c3cc4c(cc3OC)N(C)[C@H]3[C@@](O)(C(=O)OC)[C@H](OC(C)=O)[C@]5(CC)C=CCN6CC[C@]43[C@@H]65)C2)C1 [Example 64, 12′-(N-isopropylaminomethyl)vinblastine] |  |  | 900 | > 1000
9 | CC[C@]1(O)C[C@H]2CN(CCc3c([nH]c4ccc(SCc5ccc(OC)cc5)cc34)[C@@](C(=O)OC)(c3cc4c(cc3OC)N(C)[C@H]3[C@@](O)(C(=O)OC)[C@H](OC(C)=O)[C@]5(CC)C=CCN6CC[C@]43[C@@H]65)C2)C1 [Example 36, 12′-(4-methoxybenzylsulfanyl)vinblastine] | 30 | 50 |  | 
10 | CC[C@]1(O)C[C@H]2CN(CCc3c([nH]c4ccc(C#N)cc34)[C@@](C(=O)OC)(c3cc4c(cc3OC)N(C)[C@H]3[C@@](O)(C(=O)OC)[C@H](OC(C)=O)[C@]5(CC)C=CCN6CC[C@]43[C@@H]65)C2)C1 [Example 65, 12′-cyanovinblastine] |  |  | 3 | 3
11 | CC[C@]1(O)C[C@H]2CN(CCc3c([nH]c4ccc(C#N)cc34)[C@@](C(=O)OC)(c3cc4c(cc3OC)N(C=O)[C@H]3[C@@](O)(C(=O)OC)[C@H](OC(C)=O)[C@]5(CC)C=CCN6CC[C@]43[C@@H]65)C2)C1 [Example 66, 12′-cyanovincristine] |  |  | 10 | 4
12 | CCSc1ccc2[nH]c3c(c2c1)CCN1C[C@H](C[C@@](O)(CC)C1)C[C@]3(C(=O)OC)c1cc2c(cc1OC)N(C=O)[C@H]1[C@@](O)(C(=O)OC)[C@H](OC(C)=O)[C@]3(CC)C=CCN4CC[C@]21[C@@H]43 [Example 40, 12′-(ethylsulfanyl) vincristine] |  |  | 6 | 8
13 | CC[C@]1(O)C[C@H]2CN(CCc3c([nH]c4ccc(-c5cccc(O)c5)cc34)[C@@](C(=O)OC)(c3cc4c(cc3OC)N(C)[C@H]3[C@@](O)(C(=O)OC)[C@H](OC(C)=O)[C@]5(CC)C=CCN6CC[C@]43[C@@H]65)C2)C1 [Example 12, 12′-(3-hydroxyphenyl) vinblastine] | 200 | 300 |  | 
14 | CC[C@]1(O)C[C@H]2CN(CCc3c([nH]c4ccc(/C=C/C#N)cc34)[C@@](C(=O)OC)(c3cc4c(cc3OC)N(C)[C@H]3[C@@](O)(C(=O)OC)[C@H](OC(C)=O)[C@]5(CC)C=CCN6CC[C@]43[C@@H]65)C2)C1 [Example 30, 12′-(2-cyanovinyl) vinblastine] | 65 | 45 |  | 
15 | CC[C@]1(O)C[C@H]2CN(CCc3c([nH]c4ccc(Nc5ccccc5)cc34)[C@@](C(=O)OC)(c3cc4c(cc3OC)N(C)[C@H]3[C@@](O)(C(=O)OC)[C@H](OC(C)=O)[C@]5(CC)C=CCN6CC[C@]43[C@@H]65)C2)C1 [Example 82, 12′-(phenylamino) vinblastine] | 300 | 600 |  | 
16 | CC[C@]1(O)C[C@H]2CN(CCc3c([nH]c4ccc(N5CCCC5)cc34)[C@@](C(=O)OC)(c3cc4c(cc3OC)N(C)[C@H]3[C@@](O)(C(=O)OC)[C@H](OC(C)=O)[C@]5(CC)C=CCN6CC[C@]43[C@@H]65)C2)C1 [Example 87, 12′-(pyrrolidin-1-yl) vinblastine] | 50 | 60 |  | 
17 | CC[C@]1(O)C[C@H]2CN(CCc3c([nH]c4ccc(SCCN(C)C)cc34)[C@@](C(=O)OC)(c3cc4c(cc3OC)N(C)[C@H]3[C@@](O)(C(=O)OC)[C@H](OC(C)=O)[C@]5(CC)C=CCN6CC[C@]43[C@@H]65)C2)C1 [Example 48, 12′-(2-(N,N-dimethylamino)ethylsulfanyl)vinblastine] | 30 | 40 |  | 
18 | CC[C@]1(O)C[C@H]2CN(CCc3c([nH]c4ccc(C(=O)CC(C)C)cc34)[C@@](C(=O)OC)(c3cc4c(cc3OC)N(C=O)[C@H]3[C@@](O)(C(=O)OC)[C@H](OC(C)=O)[C@]5(CC)C=CCN6CC[C@]43[C@@H]65)C2)C1 [Example 71, 12′-(3-methylbutanoyl) vincristine] | 200 | 100 |  | 
19 | CCc1ccc2[nH]c3c(c2c1)CCN1C[C@H](C[C@@](O)(CC)C1)C[C@]3(C(=O)OC)c1cc2c(cc1OC)N(C=O)[C@H]1[C@@](O)(C(=O)OC)[C@H](OC(C)=O)[C@]3(CC)C=CCN4CC[C@]21[C@@H]43 [Example 78, 12′-ethylvincristine] |  |  | 5 | 10
20 | CC[C@]1(O)C[C@H]2CN(CCc3c([nH]c4ccc(-c5ccsc5)cc34)[C@@](C(=O)OC)(c3cc4c(cc3OC)N(C)[C@H]3[C@@](O)(C(=O)OC)[C@H](OC(C)=O)[C@]5(CC)C=CCN6CC[C@]43[C@@H]65)C2)C1 [Example 14, 12′-(3-thienyl) vinblastine] | 300 | 300 |  | 
21 | CC[C@]1(O)C[C@H]2CN(CCc3c([nH]c4ccc(Sc5cccc(O)c5)cc34)[C@@](C(=O)OC)(c3cc4c(cc3OC)N(C=O)[C@H]3[C@@](O)(C(=O)OC)[C@H](OC(C)=O)[C@]5(CC)C=CCN6CC[C@]43[C@@H]65)C2)C1 [Example 54, 12′-(3-hydroxyphenylsulfanyl)vincristine] | 100 | 50 |  | 
22 | CC[C@]1(O)C[C@H]2CN(CCc3c([nH]c4ccc(C=O)cc34)[C@@](C(=O)OC)(c3cc4c(cc3OC)N(C=O)[C@H]3[C@@](O)(C(=O)OC)[C@H](OC(C)=O)[C@]5(CC)C=CCN6CC[C@]43[C@@H]65)C2)C1 [Example 62, 12′-formylvincristine] |  |  | 10 | 30
